Test system: TFEB
Test: TFEB nuclear translocation assay, HeLa wt cells
Type: cell-based
Conditions: 2 hrs compound treatment, Table 1 does not say HeLa wt or TRPML1 KO
How it was run: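 Using 20× epifluorescence of fixed, anti-TFEB-stained HeLa wt cells treated 2 hrs with compound, nuclear versus perinuclear ring intensity was quantified over four fields per well, yielding AC50 values.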

Structure (SMILES) | AC50 (Homo sapiens, HeLa, 2 h) [µM] | AC50 [µM]
COCC1(C)CCN(c2ccccc2NS(=O)(=O)Cc2ccc(C)c(F)c2)CC1 [Compound A-646, 1-(3-fluoro-4-methylphenyl)-N-{2-[4-(methoxymethyl)-4-methylpiperidin-1-yl]phenyl}methanesulfonamide] | 2.01 to 8 | –
CN(CC(C)(C)O)S(=O)(=O)c1ccc(S(=O)(=O)Nc2ccccc2N2CCC(c3c(F)cccc3F)CC2)cc1 [Compound A-224, N4-{2-[4-(2,6-difluorophenyl)piperidin-1-yl]phenyl}-N1-(2-hydroxy-2-methylpropyl)-N1-methylbenzene-1,4-disulfonamide] | ≥ 10 | –
Cc1ccc(S(=O)(=O)N(C)c2ccccc2N2CCC(c3ccc(Cl)cc3F)CC2)cc1 [Compound A-107, N-{2-[4-(4-chloro-2-fluorophenyl)piperidin-1-yl]phenyl}-N,4-dimethylbenzene-1-sulfonamide] | ≥ 10 | –
CC(c1cccc(F)c1N1CCC(CN2C[C@@H](C)O[C@@H](C)C2)CC1)S(=O)(=O)c1ccc(S(=O)(=O)C(F)F)cc1 (stereo partly drawn) [Compound A-800, (2R,6S)-4-[(1-{2-[1-(4-difluoromethanesulfonylbenzenesulfonyl)ethyl]-6-fluorophenyl}piperidin-4-yl)methyl]-2,6-dimethylmorpholine] | ≤ 2 | –
COCC1(C)CCN(c2ccccc2NS(=O)(=O)c2ccc3c(c2)COC3)CC1 [Compound A-645, N-{2-[4-(methoxymethyl)-4-methylpiperidin-1-yl]phenyl}-1,3-dihydro-2-benzofuran-5-sulfonamide] | 8.01 to 9.99 | –
COCC1(C)CCN(c2ccccc2NC(c2ccc(S(=O)(=O)N(C)C)cc2)C(F)(F)F)CC1 (centres unmarked) [Compound A-684, N,N-dimethyl-4-(2,2,2-trifluoro-1-((2-(4-(methoxymethyl)-4-methylpiperidin-1-yl)phenyl)amino)ethyl)benzenesulfonamide] | 2.01 to 8 | –
CN(C)S(=O)(=O)c1ccc(S(=O)(=O)Nc2cccc(C#N)c2N2CCC3(CC2)COC(C)(C)C3)cc1 [Compound A-724, N4-(3-cyano-2-{3,3-dimethyl-2-oxa-8-azaspiro[4.5]decan-8-yl}phenyl)-N1,N1-dimethylbenzene-1,4-disulfonamide] | ≤ 2 | –
O=S(=O)(Nc1cccc(N2CCC(c3ccc(Cl)cc3F)CC2)c1)c1cccc(F)c1 [Compound A-122, N-{3-[4-(4-chloro-2-fluorophenyl)piperidin-1-yl]phenyl}-3-fluorobenzene-1-sulfonamide] | ≥ 10 | –
O=C(c1ccc(S(=O)(=O)Nc2ccccc2N2CCC(c3ccc(Cl)cc3F)CC2)cc1)C(F)(F)F [Compound A-191, N-{2-[4-(4-chloro-2-fluorophenyl)piperidin-1-yl]phenyl}-4-(2,2,2-trifluoroacetyl)benzene-1-sulfonamide] | 2.01 to 8 | –
CC1(C)CC2(CCN(c3ccccc3NS(=O)(=O)c3ccc4c(c3)CC(C)(C)C4=O)CC2)CO1 [Compound A-638, N-(2-{3,3-dimethyl-2-oxa-8-azaspiro[4.5]decan-8-yl}phenyl)-2,2-dimethyl-1-oxo-2,3-dihydro-1H-indene-5-sulfonamide] | 2.01 to 8 | –
CN(C(=O)C1CCN(c2ccccc2NS(=O)(=O)c2ccc(S(=O)(=O)N(C)C)cc2)CC1)C(C)(C)C [Compound A-359, N-tert-butyl-1-{2-[4-(dimethylsulfamoyl)benzenesulfonamido]phenyl}-N-methylpiperidine-4-carboxamide] | ≤ 2 | –
CN1CCN(S(=O)(=O)c2ccc(S(=O)(=O)Nc3ccccc3N3CCC(c4c(F)cccc4F)CC3)cc2)CC1 [Compound A-220, N-{2-[4-(2,6-difluorophenyl)piperidin-1-yl]phenyl}-4-[(4-methylpiperazin-1-yl)sulfonyl]benzene-1-sulfonamide] | ≥ 10 | –
CN(C)S(=O)(=O)c1ccc(S(=O)(=O)Nc2ccccc2N2CCC(C(C)(C)C)CC2)cc1 [Compound A-353, N4-[2-(4-tert-butylpiperidin-1-yl)phenyl]-N1,N1-dimethylbenzene-1,4-disulfonamide] | ≤ 2 | –
C[C@@H]1CN(c2nn(S(=O)(=O)c3ccc(S(=O)(=O)N(C)C)cc3)c3ccccc23)C[C@H](C)C1(F)F [Compound A-968, 4-({3-[(3R,5S)-4,4-difluoro-3,5-dimethylpiperidin-1-yl]-1H-indazol-1-yl}sulfonyl)-N,N-dimethylbenzene-1-sulfonamide] | ≤ 2 | –
CS(=O)(=O)c1ccc(S(=O)(=O)Nc2ccccc2N2CCC3(CC2)CN(CC2CCCO2)c2cc(F)ccc23)cc1 (centres unmarked) [Compound A-467, N-(2-{6-fluoro-1-[(oxolan-2-yl)methyl]-1,2-dihydrospiro[indole-3,4′-piperidin]-1′-yl}phenyl)-4-methanesulfonylbenzene-1-sulfonamide] | ≤ 2 | –
COc1ccc(CN2C(=O)C(c3ccc(Cl)cc3F)Oc3ccccc32)cc1 (centres unmarked) [Compound A-371, 2-(4-chloro-2-fluorophenyl)-4-(4-methoxybenzyl)-2H-benzo[b][1,4]oxazin-3(4H)-one] | ≤ 2 | –

Structure (SMILES) | AC50 (Homo sapiens, HeLa, 2 h) [µM] | AC50 [µM]
CC(c1cccc(F)c1N1CCCCC1)S(=O)(=O)c1ccc(S(=N)(=O)C(F)F)cc1 (single isomer, unassigned) [Compound A-938, (difluoromethyl)(4-((1-(3-fluoro-2-(piperidin-1-yl)phenyl)ethyl)sulfonyl)phenyl)(imino)-l6-sulfanone] | – | ≥ 10
O=S(=O)(Nc1ccccc1N1CCC(c2ccc(Cl)cc2F)CC1)c1ccccc1F [Compound A-79, N-{2-[4-(4-chloro-2-fluorophenyl)piperidin-1-yl]phenyl}-2-fluorobenzene-1-sulfonamide] | ≥ 10 | –
CN(C)S(=O)(=O)c1ccc(S(=O)(=O)Nc2cc(Cl)ccc2N2CCN(C(=O)C(C)(C)C)CC2)cc1 [Compound A-400, N4-{5-chloro-2-[4-(2,2-dimethylpropanoyl)piperazin-1-yl]phenyl}-N1,N1-dimethylbenzene-1,4-disulfonamide] | 2.01 to 8 | –
CC(c1cccc(F)c1N1CCC(CN2CC3CCC(C2)C3(F)F)CC1)S(=O)(=O)c1ccc(S(=O)(=O)N(C)C)cc1 (centres unmarked) [Compound A-985, 4-(1-{2-[4-({8,8-difluoro-3-azabicyclo[3.2.1]octan-3-yl}methyl)piperidin-1-yl]-3-fluorophenyl}ethanesulfonyl)-N,N-dimethylbenzene-1-sulfonamide] | ≤ 2 | –
C[C@@H]1CN(CC2CCN(c3ccccc3NS(=O)(=O)c3ccc(S(=O)(=O)N(C)C)cc3)CC2)C[C@H](C)O1 [Compound A-544, N4-[2-(4-{[(2R,6S)-2,6-dimethylmorpholin-4-yl]methyl}piperidin-1-yl)phenyl]-N1,N1-dimethylbenzene-1,4-disulfonamide] | ≤ 2 | –
Cc1cccc(S(=O)(=O)Nc2ccccc2N2CCC3(CC2)COC(C)(C)C3)c1 [Compound A-665, N-(2-{3,3-dimethyl-2-oxa-8-azaspiro[4.5]decan-8-yl}phenyl)-3-methylbenzene-1-sulfonamide] | 2.01 to 8 | –
CN(C)S(=O)(=O)c1ccc(S(=O)(=O)Nc2ccccc2N2CCC3(CCCCO3)CC2)cc1 [Compound A-562, N1,N1-dimethyl-N4-(2-{1-oxa-9-azaspiro[5.5]undecan-9-yl}phenyl)benzene-1,4-disulfonamide] | ≤ 2 | –
CC(C)(C)C(=O)N1CCN(c2ccccc2NS(=O)(=O)c2ccc3c(c2)CC(Cl)(Cl)C3=O)CC1 [Compound A-534, 2,2-dichloro-N-{2-[4-(2,2-dimethylpropanoyl)piperazin-1-yl]phenyl}-1-oxo-2,3-dihydro-1H-indene-5-sulfonamide] | 2.01 to 8 | –
CC(c1cccc(F)c1N1CCC(C)(C(F)F)CC1)S(=O)(=O)c1ccc(S(=O)(=O)N(C)C)cc1 (single isomer, unassigned) [Compound A-933, 4-((1-(2-(4-(difluoromethyl)-4-methylpiperidin-1-yl)-3-fluorophenyl)ethyl)sulfonyl)-N,N-dimethylbenzenesulfonamide] | – | ≤ 2
O=S(=O)(Nc1cccc(F)c1N1CCC(CN2C3COCC2C3)CC1)c1ccc2c(c1)CCC2 [Compound A-876, N-{3-fluoro-2-[4-({3-oxa-6-azabicyclo[3.1.1]heptan-6-yl}methyl)piperidin-1-yl]phenyl}-2,3-dihydro-1H-indene-5-sulfonamide] | ≥ 10 | –
CN(C)S(=N)(=O)c1ccc(S(=O)(=O)Nc2cccc(F)c2N2CCC(CN3CC4CCC(C3)O4)CC2)cc1 (centres unmarked) [Compound A-852, N-(2-(4-((8-oxa-3-azabicyclo[3.2.1]octan-3-yl)methyl)piperidin-1-yl)-3-fluorophenyl)-4-(N,N-dimethylsulfamidimidoyl)benzenesulfonamide] | – | ≤ 2
COc1ccc(S(=O)(=O)Nc2ccccc2N2CC(N(C)c3ccc(F)cc3F)C2)cc1 [Compound A-188, N-(2-{3-[(2,4-difluorophenyl)(methyl)amino]azetidin-1-yl}phenyl)-4-methoxybenzene-1-sulfonamide] | ≥ 10 | –
CCN1CCN(c2ccc(Cl)cc2NS(=O)(=O)c2ccc3c(c2)CCC3)C(=O)C1 [Compound A-314, N-[5-chloro-2-(4-ethyl-2-oxopiperazin-1-yl)phenyl]-2,3-dihydro-1H-indene-5-sulfonamide] | ≥ 10 | –
CN1CCN(CCCS(=O)(=O)Nc2ccccc2N2CCN(C(=O)C(C)(C)C)CC2)CC1 [Compound A-417, N-{2-[4-(2,2-dimethylpropanoyl)piperazin-1-yl]phenyl}-3-(4-methylpiperazin-1-yl)propane-1-sulfonamide] | 2.01 to 8 | –
CN(C)S(=O)(=O)c1ccc(S(=O)(=O)Nc2ccccc2N2CCN(C(=O)C34CCC(CC3)C4)CC2)cc1 [Compound A-460, N4-[2-(4-{bicyclo[2.2.1]heptane-1-carbonyl}piperazin-1-yl)phenyl]-N1,N1-dimethylbenzene-1,4-disulfonamide] | ≤ 2 | –
Cc1cc(C)cc(CS(=O)(=O)Nc2ccccc2N2CCN(C(=O)C(C)(C)C)CC2)c1 [Compound A-500, 1-(3,5-dimethylphenyl)-N-{2-[4-(2,2-dimethylpropanoyl)piperazin-1-yl]phenyl}methanesulfonamide] | 2.01 to 8 | –
